22 molecules from US20250289814A1, “COMPOUNDS AS PARP1 INHIBITIORS” (NINGBO NEWBAY TECHNOLOGY DEVELOPMENT CO., LTD., priority 2022, published 2025) can be followed below.

One data set relates to DLD1-BRCA2−/− cells. The data set is described as follows: Cell proliferation assay in DLD1-BRCA2−/− cell lines (CellTiter-Glo, 7 days). In kind it is cell-based. As to the method: BRCA2 (−/−) cells cultured in RPMI 1640+10% FBS were harvested and diluted to a density of 1×10^4 cells/mL and 2×10^4 cells/mL, respectively. Cells (40 μL/well) were seeded into 384-well cell culture plates. Plates were covered and incubated at 37° C., 5% CO2 overnight prior to the addition of test compounds or vehicle. The plates were then incubated at 37° C., 5% CO2 for 7 days. On day 8, the plates were removed from incubator and equilibrated at room temperature for 15 minutes. CellTiter-Glo (40 μL, at 1:1 to culture medium) is added into each well and the plates were placed at room temperature for 30 min. Luminescence was measured using an Envision plate reader. The resultant data were analysed as follows; where LC is culture medium without cells:
% inhibition values for different test compound concentrations were calculated and fitted to a four parameter logistic plot in order to determine the IC50 value using XLfit

A short description of data set [1]: Caco2 (A-B/B-A) permeability. The format is in vitro ADME. The conditions noted are these: human; for efflux ratio at 120 min, 5 μM: Caco-2, pH 7.4, PappB-A/PappA-B, read-out: Caco2 efflux ratio (ER); for Papp A→B at 120 min, 5 μM: Caco-2, pH 7.4, apical-to-basolateral, read-out: Caco2 A-B apparent permeability (Papp); for Papp A→B at 120 min, 5 μM / Papp B→A at 120 min, 5 μM: HBSS pH 7.4, 120 min, 37° C.; for Papp B→A at 120 min, 5 μM: Caco-2, pH 7.4, basolateral-to-apical, read-out: Caco2 B-A apparent permeability (Papp). How it is done: The apical-to-basolateral (A-B) and basolateral-to-apical (B-A) transport of 5 μM test compounds in HBSS (10 mM HEPES, pH 7.4) was measured across Caco-2 cell monolayers (cells sourced from American Type Culture Collection, Manassas, Virgina). Duplicate incubations were performed at approximately 37° C. for 120 min, with functionality of the test system confirmed using 5 μM propranolol and digoxin as control compounds. Aliquots (50 μL) from both apical and basolateral wells were transferred into two fresh 96-well plates and quenched with acetonitrile solution containing analytical internal standards. Samples were vortexed mixed, centrifuged and a 100 μL aliquot of the resulting supernatant mixed with an equal volume of ultra-pure water prior to analysis by UPLC-MS/MS. The concentrations of test compound and control compounds in the incubation medium of donor and receiver compartments at the beginning and the end of the incubation period were used to calculate the apparent permeability (Papp) from A-B and B-A directions. The efflux ratio (ER) was expressed as PappB-A/PappA-B. The integrity of the cell monolayers after 2 hours incubation was confirmed using the marker reagent Lucifer yellow.
A general note: Passage across Caco-2 layers is used to estimate intestinal permeability.

Read-outs that look alike come from different tables or passages of the source. A value given as a limit tells only on which side of the number the result lay.

Regarding `CCc1cc2ncc([C@H](C)N3CC[C@@H](Oc4ccc(C(=O)NC)nc4)C3)cc2[nH]c1=O` (single isomer, unassigned) [Compound 12, 5-(((R)-1-((enantiomer 1 or 2)-1-(7-ethyl-6-oxo-5,6-dihydro-1,5-naphthyridin-3-yl)ethyl)pyrrolidin-3-yl)oxy)-N-methylpicolinamide], in the data set on DLD1-BRCA2−/− cells (Homo sapiens, DLD-1, 168 h), the IC50 (in general, the concentration needed to halve the response being measured) worked out at 22.5 nM. Also, in data set [1], the efflux ratio at 120 min, 5 μM turned out to be 10.3; the Papp A→B (commonly how fast a substance crosses the layer from the apical side) at 120 min, 5 μM came out at 3.44 ×10⁻⁶ cm/s; the Papp B→A (usually how fast a substance crosses the layer from the basolateral side) at 120 min, 5 μM stood at 35.5 ×10⁻⁶ cm/s.
In turn, `CCc1cc2ncc(CN3CC(Oc4ccc(C(=O)NC)nc4)C[C@@H]3C)cc2[nH]c1=O` (single isomer, unassigned) [Compound 22, 5-(((enantiomer 1 or 2, 5S)-1-((7-ethyl-6-oxo-5,6-dihydro-1,5-naphthyridin-3-yl)methyl)-5-methylpyrrolidin-3-yl)oxy)-N-methylpicolinamide] registered an IC50 in the data set with DLD1-BRCA2−/− cells (Homo sapiens, DLD-1, 168 h) above 1000 nM.
As for `CCc1cc2ncc(CN3CC(Oc4ccc(C(=O)NC)nc4)C[C@@H]3C)cc2[nH]c1=O` (single isomer, unassigned) [Compound 23, 5-(((enantiomer 1 or 2, 5S)-1-((7-ethyl-6-oxo-5,6-dihydro-1,5-naphthyridin-3-yl)methyl)-5-methylpyrrolidin-3-yl)oxy)-N-methylpicolinamide], the half-maximal inhibitory concentration (IC50) with DLD1-BRCA2−/− cells is above 1000 nM.
With `CCc1cc2ncc(CN3CC[C@@H](Cc4ccc(C(=O)NC)nc4)C3)cc2[nH]c1=O` (single isomer, unassigned) [Compound 25, (enantiomer 1 or 2)-5-((1-((7-ethyl-6-oxo-5,6-dihydro-1,5-naphthyridin-3-yl)methyl)pyrrolidin-3-yl)methyl)-N-methylpicolinamide], in the data set with DLD1-BRCA2−/− cells (Homo sapiens, DLD-1, 168 h), the midpoint of inhibition, the IC50, lay at 300 nM.
With `CCc1cc2ncc(CN3CC[C@@H](Cc4ccc(C(=O)NC)nc4)C3)cc2[nH]c1=O` (single isomer, unassigned) [Compound 26, (enantiomer 1 or 2)-5-((1-((7-ethyl-6-oxo-5,6-dihydro-1,5-naphthyridin-3-yl)methyl)pyrrolidin-3-yl)methyl)-N-methylpicolinamide], the IC50 in the data set on DLD1-BRCA2−/− cells amounted to 192 nM.
In the data set with DLD1-BRCA2−/− cells (Homo sapiens, DLD-1, 168 h), `CCc1cc2ncc(CN3CCC[C@@H](Oc4ccc(C(=O)NC)nc4)C3)cc2[nH]c1=O` (single isomer, unassigned) [Compound 32, (enantiomer 1 or 2)-5-((1-((7-ethyl-6-oxo-5,6-dihydro-1,5-naphthyridin-3-yl)methyl)piperidin-3-yl)oxy)-N-methylpicolinamide] had an IC50 above 1000 nM.
`CCc1cc2ncc(CN3CCC[C@@H](Oc4ccc(C(=O)NC)nc4)C3)cc2[nH]c1=O` (single isomer, unassigned) [Compound 33, (enantiomer 1 or 2)-5-((1-((7-ethyl-6-oxo-5,6-dihydro-1,5-naphthyridin-3-yl)methyl)piperidin-3-yl)oxy)-N-methylpicolinamide]: the half-inhibitory concentration (IC50) in the data set with DLD1-BRCA2−/− cells was above 1000 nM.
Still for that read-out and setting: as for `CCc1cc2ncc(CN3CC[C@@H](N(C)c4ccc(C(=O)NC)nc4)C3)cc2[nH]c1=O` (single isomer, unassigned; enantiomer 1) [Compound 16, (enantiomer 1)-5-((1-((7-ethyl-6-oxo-5,6-dihydro-1,5-naphthyridin-3-yl)methyl)pyrrolidin-3-yl)(methyl)amino)-N-methylpicolinamide], the figure is above 1000 nM.
The molecule `CCc1cc2ncc(CN3CC[C@@H](N(C)c4ccc(C(=O)NC)nc4)C3)cc2[nH]c1=O` (single isomer, unassigned; enantiomer 2) [Compound 17, (enantiomer 2)-5-((1-((7-ethyl-6-oxo-5,6-dihydro-1,5-naphthyridin-3-yl)methyl)pyrrolidin-3-yl)(methyl)amino)-N-methylpicolinamide] displayed an IC50 with DLD1-BRCA2−/− cells of 195 nM. Also, in data set [1], the efflux ratio at 120 min, 5 μM is 9.14; the Papp A→B at 120 min, 5 μM is 3.64 ×10⁻⁶ cm/s; the Papp B→A at 120 min, 5 μM is 33.3 ×10⁻⁶ cm/s.
Take `CCc1cc2ncc(CN3CCC(Oc4ccc(C(=O)NC)nc4)C3)cc2[nH]c1=O` (stereo not shown) [Compound 9, 5-((1-((7-ethyl-6-oxo-5,6-dihydro-1,5-naphthyridin-3-yl)methyl)pyrrolidin-3-yl)oxy)-N-methylpicolinamide]: the IC50 with DLD1-BRCA2−/− cells (Homo sapiens, DLD-1, 168 h) came out at 14.3 nM. Moreover, in data set [1], the efflux ratio at 120 min, 5 μM worked out at 10.3; the Papp A→B at 120 min, 5 μM is 3.55 ×10⁻⁶ cm/s; the Papp B→A at 120 min, 5 μM was found to be 36.5 ×10⁻⁶ cm/s.
For `CCc1cc2ncc(CN3CC(Oc4ccc(C(=O)NC)nc4)C3C)cc2[nH]c1=O` (stereo not shown) [Compound 18, 5-((1-((7-ethyl-6-oxo-5,6-dihydro-1,5-naphthyridin-3-yl)methyl)-2-methylazetidin-3-yl)oxy)-N-methylpicolinamide], the half-inhibitory concentration (IC50) with DLD1-BRCA2−/− cells (Homo sapiens, DLD-1, 168 h) is above 1000 nM.
Still for that read-out and setting: the value for `CCc1cc2ncc(CN3CC[C@@H](Oc4cnc(C(=O)NC)c(F)c4)C3)cc2[nH]c1=O` [Compound 27, (R)-5-((1-((7-ethyl-6-oxo-5,6-dihydro-1,5-naphthyridin-3-yl)methyl)pyrrolidin-3-yl)oxy)-3-fluoro-N-methylpicolinamide] was 356 nM.
Molecule `CCc1cc2ncc(CN3CCC(N(C)c4ccc(C(=O)NC)nc4)CC3)cc2[nH]c1=O` [Compound 31, 5-((1-((7-ethyl-6-oxo-5,6-dihydro-1,5-naphthyridin-3-yl)methyl)piperidin-4-yl)(methyl)amino)-N-methylpicolinamide] displayed an IC50 with DLD1-BRCA2−/− cells (Homo sapiens, DLD-1, 168 h) above 1000 nM. Moreover, in data set [1], the efflux ratio at 120 min, 5 μM stood at 8.81; the Papp A→B at 120 min, 5 μM was 3.5 ×10⁻⁶ cm/s; the Papp B→A at 120 min, 5 μM was 30.9 ×10⁻⁶ cm/s.
Consider `CCc1cc2ncc(CN3CCCN(c4ccc(C(=O)NC)nc4)CC3)cc2[nH]c1=O` [Compound 34, 5-(4-((7-ethyl-6-oxo-5,6-dihydro-1,5-naphthyridin-3-yl)methyl)-1,4-diazepan-1-yl)-N-methylpicolinamide], for which, in the data set with DLD1-BRCA2−/− cells (Homo sapiens, DLD-1, 168 h), the IC50 is above 1000 nM.
Same read-out and setting: as for `CNC(=O)c1ccc(N2CCCN(Cc3cnc4cc(C)c(=O)[nH]c4c3)CC2)cn1` [Compound 35, N-methyl-5-(4-((7-methyl-6-oxo-5,6-dihydro-1,5-naphthyridin-3-yl)methyl)-1,4-diazepan-1-yl) picolinamide], the figure is above 1000 nM; as for `CCc1cc2ncc(CN3C4CC3CN(c3ccc(C(=O)NC)nc3)C4)cc2[nH]c1=O` [Compound 36, 5-(6-((7-ethyl-6-oxo-5,6-dihydro-1,5-naphthyridin-3-yl)methyl)-3,6-diazabicyclo [3.1.1]heptan-3-yl)-N-methylpicolinamide], above 1000 nM.
Turning to `CCc1cc2ncc(CN3CC4CC3CN4c3ccc(C(=O)NC)nc3)cc2[nH]c1=O` (stereo not shown) [Compound 37, 5-(5-((7-ethyl-6-oxo-5,6-dihydro-1,5-naphthyridin-3-yl)methyl)-2,5-diazabicyclo [2.2.1]heptan-2-yl)-N-methylpicolinamide], the IC50 in the data set with DLD1-BRCA2−/− cells (Homo sapiens, DLD-1, 168 h) is above 1000 nM. In data set [1], the efflux ratio at 120 min, 5 μM is 18.8; the Papp A→B at 120 min, 5 μM came to 1.61 ×10⁻⁶ cm/s; the Papp B→A at 120 min, 5 μM amounted to 30.2 ×10⁻⁶ cm/s.
As to `CCc1cc2ncc(CN3C4CCC3CN(c3ccc(C(=O)NC)nc3)C4)cc2[nH]c1=O` [Compound 38, 5-(8-((7-ethyl-6-oxo-5,6-dihydro-1,5-naphthyridin-3-yl)methyl)-3,8-diazabicyclo [3.2.1]octan-3-yl)-N-methylpicolinamide], in the data set on DLD1-BRCA2−/− cells (Homo sapiens, DLD-1, 168 h), the half-maximal inhibitory concentration (IC50) was above 1000 nM.
Same read-out and setting: the value for `CCc1cc2ncc(CN3CC4CCC(C3)N4c3ccc(C(=O)NC)nc3)cc2[nH]c1=O` [Compound 39, 5-(3-((7-ethyl-6-oxo-5,6-dihydro-1,5-naphthyridin-3-yl)methyl)-3,8-diazabicyclo [3.2.1]octan-8-yl)-N-methylpicolinamide] was above 1000 nM.
For the molecule `CCc1cc2ncc(CN3CC4CN(c5ccc(C(=O)NC)nc5)CC4C3)cc2[nH]c1=O` (stereo not shown) [Compound 40, 5-(5-((7-ethyl-6-oxo-5,6-dihydro-1,5-naphthyridin-3-yl)methyl)hexahydropyrrolo [3,4-c]pyrrol-2(1H)-yl)-N-methylpicolinamide], it took 181 nM to reach half-maximal inhibition with DLD1-BRCA2−/− cells (Homo sapiens, DLD-1, 168 h) (IC50). Further, in data set [1], the efflux ratio at 120 min, 5 μM is 8.32; the Papp A→B at 120 min, 5 μM amounted to 4.29 ×10⁻⁶ cm/s; the Papp B→A at 120 min, 5 μM amounted to 35.7 ×10⁻⁶ cm/s.
Take `CNC(=O)c1ccc(N2CC3CN(Cc4cnc5cc(C)c(=O)[nH]c5c4)CC3C2)cn1` (stereo not shown) [Compound 41, N-methyl-5-(5-((7-methyl-6-oxo-5,6-dihydro-1,5-naphthyridin-3-yl)methyl)hexahydropyrrolo[3,4-c]pyrrol-2(1H)-yl)picolinamide]: the IC50 in the data set with DLD1-BRCA2−/− cells (Homo sapiens, DLD-1, 168 h) was above 1000 nM.
Same read-out and setting: as for `CNC(=O)c1ccc(O[C@@H]2CCN(Cc3cnc4cc(C)c(=O)[nH]c4c3)C2)cn1` [Compound 59, (R)-N-methyl-5-((1-((7-methyl-6-oxo-5,6-dihydro-1,5-naphthyridin-3-yl)methyl)pyrrolidin-3-yl)oxy)picolinamide], the figure is 215 nM.
